# Experimental data taken from ChEMBL document CHEMBL3813616, “Discovery of novel 7-azaindoles as PDK1 inhibitors” (Bioorg Med Chem Lett, 2016).
# Experiments:
# [1] = target: Glycogen synthase kinase-3 beta (Homo sapiens) (UniProt P49841); experiment: Inhibition of human GSK3beta (2 to 420 residues) assessed as enzyme activity at 1 uM using 33P ATP by radioactive filter binding assay; design: scale not given: the % may be the effect or the level left
# [2] = target: Casein kinase I isoform delta (Homo sapiens) (UniProt P48730); experiment: Inhibition of human CK1 delta (1 to 415 residues) assessed as enzyme activity at 1 uM using 33P ATP by radioactive filter binding assay; design: scale not given: the % may be the effect or the level left
# Sequence of Casein kinase I isoform delta (Homo sapiens) (P48730 whole entry, looked up, the tested form may be a part, canonical isoform): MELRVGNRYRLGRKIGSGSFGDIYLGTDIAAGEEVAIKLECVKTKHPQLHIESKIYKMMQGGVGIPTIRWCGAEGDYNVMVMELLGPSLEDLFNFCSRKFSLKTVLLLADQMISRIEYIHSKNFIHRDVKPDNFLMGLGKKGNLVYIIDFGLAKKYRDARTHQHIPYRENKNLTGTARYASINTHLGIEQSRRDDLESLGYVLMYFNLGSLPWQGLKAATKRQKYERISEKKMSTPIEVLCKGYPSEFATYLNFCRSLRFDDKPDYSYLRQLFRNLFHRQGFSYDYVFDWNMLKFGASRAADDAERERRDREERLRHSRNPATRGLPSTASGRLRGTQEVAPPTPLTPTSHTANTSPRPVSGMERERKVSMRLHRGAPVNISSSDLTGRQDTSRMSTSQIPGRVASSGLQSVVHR
# [3] = target: T1, Ephrin type-B receptor 3 (Homo sapiens) (UniProt P54753); experiment: Inhibition of human EPHB3 (561 to 998 residues) assessed as enzyme activity at 1 uM using 33P ATP by radioactive filter binding assay; design: scale not given: the % may be the effect or the level left
# T1 sequence (whole entry): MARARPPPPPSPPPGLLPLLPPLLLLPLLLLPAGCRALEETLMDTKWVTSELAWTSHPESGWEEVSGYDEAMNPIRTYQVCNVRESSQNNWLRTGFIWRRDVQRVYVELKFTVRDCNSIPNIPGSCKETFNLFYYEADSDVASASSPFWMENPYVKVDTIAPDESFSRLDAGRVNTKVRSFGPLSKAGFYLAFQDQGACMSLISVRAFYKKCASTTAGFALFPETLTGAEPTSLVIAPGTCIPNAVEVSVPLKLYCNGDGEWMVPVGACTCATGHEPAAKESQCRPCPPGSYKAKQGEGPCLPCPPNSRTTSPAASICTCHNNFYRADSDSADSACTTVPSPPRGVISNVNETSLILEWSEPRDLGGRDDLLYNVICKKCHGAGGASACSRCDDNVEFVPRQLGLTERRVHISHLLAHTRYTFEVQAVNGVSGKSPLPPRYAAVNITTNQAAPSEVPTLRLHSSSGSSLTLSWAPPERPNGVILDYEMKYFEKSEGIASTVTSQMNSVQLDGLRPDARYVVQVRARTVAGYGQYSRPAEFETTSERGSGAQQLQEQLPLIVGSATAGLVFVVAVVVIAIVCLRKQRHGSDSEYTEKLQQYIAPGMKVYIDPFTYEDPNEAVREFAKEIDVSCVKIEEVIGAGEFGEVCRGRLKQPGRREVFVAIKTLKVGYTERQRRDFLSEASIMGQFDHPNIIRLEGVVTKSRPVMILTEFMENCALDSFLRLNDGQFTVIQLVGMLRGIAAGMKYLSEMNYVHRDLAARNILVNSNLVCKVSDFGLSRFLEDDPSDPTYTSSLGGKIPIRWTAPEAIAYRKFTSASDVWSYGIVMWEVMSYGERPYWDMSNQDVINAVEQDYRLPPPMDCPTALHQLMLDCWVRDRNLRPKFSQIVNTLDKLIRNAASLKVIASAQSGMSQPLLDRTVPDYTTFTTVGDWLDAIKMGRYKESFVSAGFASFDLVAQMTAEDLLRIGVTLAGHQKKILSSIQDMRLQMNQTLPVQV
# [4] = target: Myosin light chain kinase, smooth muscle (Homo sapiens) (UniProt Q15746); experiment: Inhibition of human smMLCK (475 to 838 residues) assessed as enzyme activity at 1 uM using 33P ATP by radioactive filter binding assay; design: scale not given: the % may be the effect or the level left
# Sequence of Myosin light chain kinase, smooth muscle (Homo sapiens) (Q15746 whole entry, the tested form may be a part): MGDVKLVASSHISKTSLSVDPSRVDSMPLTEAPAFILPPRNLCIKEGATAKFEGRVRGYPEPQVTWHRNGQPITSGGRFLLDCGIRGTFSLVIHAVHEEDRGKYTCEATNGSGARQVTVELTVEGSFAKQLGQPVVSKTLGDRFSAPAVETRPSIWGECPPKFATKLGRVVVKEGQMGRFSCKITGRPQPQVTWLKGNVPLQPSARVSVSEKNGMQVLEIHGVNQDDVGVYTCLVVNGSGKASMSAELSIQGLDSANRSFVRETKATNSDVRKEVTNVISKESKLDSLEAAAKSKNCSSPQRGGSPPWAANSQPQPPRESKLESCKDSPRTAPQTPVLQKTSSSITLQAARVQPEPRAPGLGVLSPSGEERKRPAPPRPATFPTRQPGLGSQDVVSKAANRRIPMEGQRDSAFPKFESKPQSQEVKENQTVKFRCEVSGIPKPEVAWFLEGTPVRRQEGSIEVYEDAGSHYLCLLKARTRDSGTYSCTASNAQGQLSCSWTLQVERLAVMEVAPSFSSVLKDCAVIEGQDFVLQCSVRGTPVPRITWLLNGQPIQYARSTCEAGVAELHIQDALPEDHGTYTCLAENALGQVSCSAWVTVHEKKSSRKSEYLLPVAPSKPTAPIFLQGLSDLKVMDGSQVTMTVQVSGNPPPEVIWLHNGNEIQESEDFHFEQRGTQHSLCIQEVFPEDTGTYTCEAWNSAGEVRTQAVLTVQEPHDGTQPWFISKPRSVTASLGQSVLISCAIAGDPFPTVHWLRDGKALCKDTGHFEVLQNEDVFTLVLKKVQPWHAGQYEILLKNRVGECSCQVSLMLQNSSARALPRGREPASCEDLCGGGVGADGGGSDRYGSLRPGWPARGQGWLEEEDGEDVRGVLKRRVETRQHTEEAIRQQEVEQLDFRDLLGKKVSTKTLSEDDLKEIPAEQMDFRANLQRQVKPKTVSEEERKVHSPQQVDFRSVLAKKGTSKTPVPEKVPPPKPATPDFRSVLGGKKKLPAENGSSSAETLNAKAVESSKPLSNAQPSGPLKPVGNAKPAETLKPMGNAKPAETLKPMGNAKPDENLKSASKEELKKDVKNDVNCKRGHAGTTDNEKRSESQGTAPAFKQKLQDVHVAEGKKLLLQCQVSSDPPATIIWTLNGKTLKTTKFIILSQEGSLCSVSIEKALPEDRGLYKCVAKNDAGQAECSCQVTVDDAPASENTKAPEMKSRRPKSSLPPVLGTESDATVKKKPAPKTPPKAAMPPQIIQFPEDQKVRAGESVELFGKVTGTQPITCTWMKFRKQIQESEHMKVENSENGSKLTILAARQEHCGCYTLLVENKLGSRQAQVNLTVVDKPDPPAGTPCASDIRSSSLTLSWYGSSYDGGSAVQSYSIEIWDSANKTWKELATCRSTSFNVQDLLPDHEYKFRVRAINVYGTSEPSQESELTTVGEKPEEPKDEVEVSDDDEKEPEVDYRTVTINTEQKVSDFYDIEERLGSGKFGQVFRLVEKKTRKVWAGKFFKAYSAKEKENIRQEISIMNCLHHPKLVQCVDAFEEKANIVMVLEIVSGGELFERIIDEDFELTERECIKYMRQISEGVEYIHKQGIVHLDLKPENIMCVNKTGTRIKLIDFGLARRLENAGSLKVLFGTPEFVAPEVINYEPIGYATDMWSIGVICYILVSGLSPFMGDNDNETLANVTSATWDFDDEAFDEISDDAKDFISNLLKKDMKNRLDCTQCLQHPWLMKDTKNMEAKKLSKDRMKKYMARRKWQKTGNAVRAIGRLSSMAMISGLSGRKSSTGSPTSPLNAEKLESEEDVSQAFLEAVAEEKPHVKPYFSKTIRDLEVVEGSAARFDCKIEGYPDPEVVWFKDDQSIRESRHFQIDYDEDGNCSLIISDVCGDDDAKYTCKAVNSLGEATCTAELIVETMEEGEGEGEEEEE
# [5] = target: T2, Dual specificity tyrosine-phosphorylation-regulated kinase 3 (Homo sapiens) (UniProt O43781); experiment: Inhibition of human DYRK3 (1 to 588 residues) assessed as enzyme activity at 1 uM using 33P ATP by radioactive filter binding assay; design: scale not given: the % may be the effect or the level left
# T2 sequence (whole entry): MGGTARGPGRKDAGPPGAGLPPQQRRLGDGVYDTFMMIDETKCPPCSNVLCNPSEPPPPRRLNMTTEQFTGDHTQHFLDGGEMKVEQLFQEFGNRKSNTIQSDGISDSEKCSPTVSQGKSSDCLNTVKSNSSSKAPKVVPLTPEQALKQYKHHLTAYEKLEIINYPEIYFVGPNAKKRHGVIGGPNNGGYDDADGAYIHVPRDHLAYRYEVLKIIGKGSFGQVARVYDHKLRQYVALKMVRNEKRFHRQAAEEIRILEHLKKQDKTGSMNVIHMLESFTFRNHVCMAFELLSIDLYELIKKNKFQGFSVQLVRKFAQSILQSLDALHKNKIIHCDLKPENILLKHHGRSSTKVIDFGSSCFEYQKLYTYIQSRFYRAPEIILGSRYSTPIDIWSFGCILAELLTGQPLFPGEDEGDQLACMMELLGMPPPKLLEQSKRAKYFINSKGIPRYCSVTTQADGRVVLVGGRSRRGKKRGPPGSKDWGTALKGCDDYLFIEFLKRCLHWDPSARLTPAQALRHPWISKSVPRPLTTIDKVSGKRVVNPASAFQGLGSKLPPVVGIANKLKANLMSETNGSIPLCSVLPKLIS
# [6] = target: Ribosomal protein S6 kinase alpha-5 (Homo sapiens) (UniProt O75582); experiment: Inhibition of human MSK1 (2 to 802 residues) assessed as enzyme activity at 1 uM using 33P ATP by radioactive filter binding assay; design: scale not given: the % may be the effect or the level left
# Sequence of Ribosomal protein S6 kinase alpha-5 (Homo sapiens) (O75582 whole entry, looked up, the tested form may be a part): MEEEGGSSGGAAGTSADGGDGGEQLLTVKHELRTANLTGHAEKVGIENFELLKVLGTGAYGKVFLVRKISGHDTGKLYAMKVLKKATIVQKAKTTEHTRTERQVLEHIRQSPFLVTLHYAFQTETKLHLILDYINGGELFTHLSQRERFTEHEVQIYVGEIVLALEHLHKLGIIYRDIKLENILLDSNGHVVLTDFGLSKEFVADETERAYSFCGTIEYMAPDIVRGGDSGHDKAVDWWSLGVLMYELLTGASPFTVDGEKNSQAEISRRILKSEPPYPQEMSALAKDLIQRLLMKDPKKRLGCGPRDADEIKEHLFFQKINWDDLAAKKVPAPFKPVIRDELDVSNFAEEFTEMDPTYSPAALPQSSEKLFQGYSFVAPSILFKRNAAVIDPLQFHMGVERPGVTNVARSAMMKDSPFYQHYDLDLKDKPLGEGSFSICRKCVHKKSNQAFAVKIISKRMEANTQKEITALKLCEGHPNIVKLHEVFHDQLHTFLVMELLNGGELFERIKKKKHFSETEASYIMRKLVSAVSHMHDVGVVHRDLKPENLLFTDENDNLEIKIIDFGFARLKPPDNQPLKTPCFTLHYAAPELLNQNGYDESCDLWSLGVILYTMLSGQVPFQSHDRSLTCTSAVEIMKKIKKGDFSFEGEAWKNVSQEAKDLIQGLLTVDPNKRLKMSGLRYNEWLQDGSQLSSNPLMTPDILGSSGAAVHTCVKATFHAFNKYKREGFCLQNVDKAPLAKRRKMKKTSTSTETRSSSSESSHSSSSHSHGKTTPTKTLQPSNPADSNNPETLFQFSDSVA
# [7] = target: Tyrosine-protein kinase Lck (Homo sapiens) (UniProt P06239); experiment: Inhibition of human LCK (2 to 509 residues) assessed as enzyme activity at 1 uM using 33P ATP by radioactive filter binding assay; design: scale not given: the % may be the effect or the level left
# Sequence of Tyrosine-protein kinase Lck (Homo sapiens) (P06239 2-509 limits assumed): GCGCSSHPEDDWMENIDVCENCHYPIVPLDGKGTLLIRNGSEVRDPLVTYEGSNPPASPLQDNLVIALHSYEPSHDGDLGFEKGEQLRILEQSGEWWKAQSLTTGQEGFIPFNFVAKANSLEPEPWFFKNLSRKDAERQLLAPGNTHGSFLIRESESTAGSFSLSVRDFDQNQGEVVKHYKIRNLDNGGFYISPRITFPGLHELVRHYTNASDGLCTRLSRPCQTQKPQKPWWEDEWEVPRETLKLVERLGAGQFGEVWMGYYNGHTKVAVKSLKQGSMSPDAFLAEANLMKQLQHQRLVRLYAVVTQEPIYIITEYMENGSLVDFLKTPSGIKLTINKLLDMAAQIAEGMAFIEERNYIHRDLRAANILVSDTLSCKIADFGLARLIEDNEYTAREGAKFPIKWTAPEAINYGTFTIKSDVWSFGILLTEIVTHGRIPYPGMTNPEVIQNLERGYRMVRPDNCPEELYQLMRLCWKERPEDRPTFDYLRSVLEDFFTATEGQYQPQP
# [8] = target: AMP-activated protein kinase, AMPK (Homo sapiens) (UniProt P54646+O43741+P54619+Q9UGJ0+Q9Y478+Q13131+Q9UGI9); experiment: Inhibition of human AMPK assessed as enzyme activity at 1 uM using 33P ATP by radioactive filter binding assay; type: protein-complex assay; design: scale not given: the % may be the effect or the level left
# [9] = target: Ribosomal protein S6 kinase alpha-1 (Homo sapiens) (UniProt Q15418); experiment: Inhibition of human MAPKAPK1alpha (1 to 735 residues) assessed as enzyme activity at 1 uM using 33P ATP by radioactive filter binding assay; design: scale not given: the % may be the effect or the level left
# [10] = target: Phosphatidylinositol 4,5-bisphosphate 3-kinase catalytic subunit gamma isoform (Homo sapiens, UniProt P48736); experiment: Inhibition of PI3K gamma (unknown origin)
# [11] = target: Dual specificity mitogen-activated protein kinase kinase 1 (Homo sapiens) (UniProt Q02750); experiment: Inhibition of human MKK1 (2 to 393 residues) assessed as enzyme activity at 1 uM using 33P ATP by radioactive filter binding assay; design: scale not given: the % may be the effect or the level left
# Sequence of Dual specificity mitogen-activated protein kinase kinase 1 (Homo sapiens) (Q02750 whole entry, the tested form may be a part): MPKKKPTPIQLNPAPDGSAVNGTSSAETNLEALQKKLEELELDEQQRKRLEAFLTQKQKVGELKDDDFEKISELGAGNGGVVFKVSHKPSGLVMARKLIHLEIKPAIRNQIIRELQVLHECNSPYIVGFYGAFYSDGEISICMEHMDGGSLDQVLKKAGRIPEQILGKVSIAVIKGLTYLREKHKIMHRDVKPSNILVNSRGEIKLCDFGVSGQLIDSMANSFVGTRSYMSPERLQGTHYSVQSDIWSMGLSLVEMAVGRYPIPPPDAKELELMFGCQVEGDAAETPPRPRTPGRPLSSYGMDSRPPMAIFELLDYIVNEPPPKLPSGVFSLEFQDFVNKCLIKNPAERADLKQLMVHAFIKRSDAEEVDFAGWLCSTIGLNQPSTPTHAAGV
# [12] = target: Tyrosine-protein kinase CSK (Homo sapiens) (UniProt P41240); experiment: Inhibition of human CSK (1 to 450 residues) assessed as enzyme activity at 1 uM using 33P ATP by radioactive filter binding assay; design: scale not given: the % may be the effect or the level left
# Sequence of Tyrosine-protein kinase CSK (Homo sapiens) (P41240 2-450 limits assumed): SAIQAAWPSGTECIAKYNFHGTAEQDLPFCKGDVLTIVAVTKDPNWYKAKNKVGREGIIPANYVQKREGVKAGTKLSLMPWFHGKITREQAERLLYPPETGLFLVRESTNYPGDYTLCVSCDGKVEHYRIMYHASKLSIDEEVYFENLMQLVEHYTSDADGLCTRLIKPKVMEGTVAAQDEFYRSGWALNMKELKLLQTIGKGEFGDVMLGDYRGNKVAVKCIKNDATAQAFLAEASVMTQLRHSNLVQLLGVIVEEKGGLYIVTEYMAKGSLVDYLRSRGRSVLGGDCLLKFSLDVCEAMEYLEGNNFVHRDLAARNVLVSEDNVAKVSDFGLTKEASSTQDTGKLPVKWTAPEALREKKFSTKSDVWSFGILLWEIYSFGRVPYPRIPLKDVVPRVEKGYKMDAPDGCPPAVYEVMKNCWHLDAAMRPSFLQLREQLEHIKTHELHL
# Sequence of Glycogen synthase kinase-3 beta (Homo sapiens) (P49841 whole entry, looked up, the tested form may be a part, canonical isoform): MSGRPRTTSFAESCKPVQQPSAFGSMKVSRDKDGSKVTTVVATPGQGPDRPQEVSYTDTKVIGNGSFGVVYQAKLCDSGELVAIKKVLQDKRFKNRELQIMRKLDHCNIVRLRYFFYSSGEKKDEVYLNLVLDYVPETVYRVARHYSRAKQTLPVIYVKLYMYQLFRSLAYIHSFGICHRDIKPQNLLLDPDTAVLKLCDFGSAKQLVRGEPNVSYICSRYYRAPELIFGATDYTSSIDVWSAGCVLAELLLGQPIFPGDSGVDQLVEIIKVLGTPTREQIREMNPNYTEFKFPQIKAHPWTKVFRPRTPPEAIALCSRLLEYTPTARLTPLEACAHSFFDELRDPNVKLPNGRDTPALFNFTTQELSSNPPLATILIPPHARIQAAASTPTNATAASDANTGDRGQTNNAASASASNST
Activity [1],Activity [2],Activity [3],Activity [4],Activity [5],Activity [6],Activity [7],Activity [8],Activity [9],IC50 [10],Activity [11],Activity [12],Structure (SMILES)
-77%,-74%,28%,-35%,-82%,-49%,-9%,-11%,-82%,> 10 µM,-67%,0%,Nc1nccc(-c2c[nH]c3ncccc23)n1 [MERIOLIN 1]
-94%,-67%,-19%,-40%,-87%,-43%,-95%,-54%,-86%,> 10 µM,-77%,6%,CCc1cc(-c2c[nH]c3ncc(-c4cnn(C5CCNCC5)c4)cc23)nc(N)n1
-86%,-26%,–,-10%,-80%,-46%,-5%,-6%,-56%,> 10 µM,-21%,-5%,CCCCc1cc(-c2c[nH]c3ncccc23)nc(N)n1
-94%,-72%,-25%,-72%,-84%,-56%,-99%,-69%,-88%,–,-82%,-24%,CCCCc1cc(-c2c[nH]c3ncc(-c4cnn(C5CCNCC5)c4)cc23)nc(N)n1
